According to patent US20140343480A1, “SYSTEMS, METHODS, AND COMPOSITIONS FOR CROSS-LINKING” (AVEDRO, INC., priority 2013, published 2014):
≈ marks a conversion by molar mass, not a printed value.

Assays:
corneal collagen [1] = assay: Biaxial extensometry (tensiometry) of corneal flaps; parameters: species or system Pig; details: for displacement vs. force (corneal stiffening): 30 mW/cm^2, pulsed 1 s on/1 s off, 8 min, oxygen, vs unexposed controls; for displacement-force (corneal stiffness): 1% solution in dH2O
Experimental: Pig eyes were shipped overnight on ice from an abattoir (SiouxPreme, Sioux City, Iowa), rinsed in saline. Eyes were cleaned and epithelium was removed. […] If specified, eyes were placed in a beaker with a light oxygen stream for 2 minutes in the incubation chamber prior to irradiation. Corneas were pan-corneally irradiated with a top hat beam (3% root mean square) for the chosen time (4 or 8 minutes) with 365-nm light source (UV LED NCSU033B[T]; Nichia Co., Tokushima, Japan) at the chosen irradiance (30 mW/cm^2, pulsed or non-pulsed) which was measured with a power sensor (model PD-300-UV; Ophir, Inc., Jerusalem, Israel) at the corneal surface. Corneal flaps (approximately 200 μm thick) were excised from the eyes with aid of Intralase femtosecond laser (Abbot Medical Optics, Santa Ana, Calif.). The average thickness of the corneal flaps was calculated as a difference between the measurements before and after the excision from the eyes with an ultrasonic Pachymeter (DGH Technology, Exton, Pa.). The flaps were placed into a biaxial extensometer (CellScale Biotester 5000, Waterloo, ON), using biorake attachments with 5 tines spanning a width of 3 mm. Each sample was stretched at a constant rate of 4 μm/s in saline at 37° C. until sample failure. The flaps were washed with distilled water 2 times, dried with filter paper, washed with dH2O two times, and then dried in a vacuum until the weight change became less than 10% (Rotary vane vacuum pump RV3 A652-01-903, BOC Edwards, West Sussex, UK). Each flap was digested for 2.5 hours at 65° C. with 2.5 units/ml of papain (from Papaya latex, Sigma) in 1 ml of papain buffer [BBBS (pH 7.0-7.2), 2 mM L-cysteine and 2 mM EDTA]. Papain digests were centrifuged for 5 seconds at 2200×G (Mini centrifuge 05-090-100, Fisher Scientific), diluted 0.5 times with 1XBBBS and fluorescence of the solutions was measured with excitation of λex=360 nm in a QM-40 Spectrofluorometer (Photon Technology Int., London, Ontario, Canada). The fluorescence of the papain buffer was taken into account by measuring fluorescence in the absence of tissue and subtracting this value from the fluorescence of the samples.
Pig eyes were shipped overnight on ice from an abattoir (SiouxPreme, Sioux City, Iowa), rinsed in saline. Eyes were cleaned and epithelium was removed. […] Corneas were pan-corneally irradiated with a top hat beam (3% root mean square) for 4 minutes with 365-nm light source (UV LED NCSU033B[T]; Nichia Co., Tokushima, Japan) at irradiance 30 mW/cm^2, which was measured with a power sensor (model PD-300-UV; Ophir, Inc., Jerusalem, Israel) at the corneal surface. Corneal flaps (approximately 200 μm thick) were excised from the eyes with aid of Intralase femtosecond laser (Abbott Medical Optics, Santa Ana, Calif.). The average thickness of the corneal flaps was calculated as a difference between the measurements before and after the excision from the eyes with an ultrasonic Pachymeter (DGH Technology, Exton, Pa.). The flaps were then placed into a biaxial extensometer (CellScale Biotester 5000, Waterloo, ON), using biorake attachments with 5 tines spanning a width of 3 mm. Each sample was stretched at a constant rate of 4 μm/s in saline at 37° C. until sample failure. The flaps were washed with distilled water, dried in a vacuum until the weight change became less than 10% (Rotary vane vacuum pump RV3 A652-01-903, BOC Edwards, West Sussex, UK). Each flap was digested for 2.5 h at 65° C. with 2.5 units/ml of papain (from Papaya latex, Sigma) in 1 ml of papain buffer [BBBS (pH 7.0-7.2), 2 mM L-cysteine and 2 mM EDTA]. Papain digests were centrifuged for 5 seconds at 2200×G (Mini centrifuge 05-090-100, Fisher Scientific), diluted 0.5 times with 1XBBBS and fluorescence of the solutions was measured with excitation of λex=360 nm in a QM-40 Spectrofluorometer (Photon Technology Int., London, Ontario, Canada).

[2] = Solubility of folic acid in phosphate buffer; type: physicochemical; details: pH 7, aqueous buffer, 25° C., pH of the final solution 7.0
Description: FA is soluble in water with dependence on pH and temperature. […] FA has UV light absorbance at 400 nm and below (the long wave peak at 360 nm as shown in FIG. 16), and fluorescence with maximum around 460 nm (as shown in FIG. 17).

corneal collagen [3] = assay: Papain digest fluorescence of corneal flaps (collagen cross-linking); parameters: species or system Pig; details: for fluorescence of the corneal samples after digestion with papain (excitation 360 nm): 30 mW/cm^2, pulsed 1 s on/1 s off, 8 min, oxygen, vs controls not exposed to UV; for fluorescence of the digested corneas in the area 450 nm: 20 min soak, 30 mW/cm^2, 4 min continuous UVA, vs non-cross-linked control; for fluorescence (relative to the untreated controls, Fo) recorded at 450 nm: 1% solution in dH2O
Experimental: Corneas were pan-corneally irradiated with a top hat beam (3% root mean square) for 8 minutes (7.2 J total dose) in a cylinder filled with oxygen with 365-nm light source (pulsing 1 second on, 1 second off) (UV LED NCSU033B[T]; Nichia Co., Tokushima, Japan) at the chosen irradiance (30 mW/cm^2) which was measured with a power sensor (model PD-300-UV; Ophir, Inc., Jerusalem, Israel) at the corneal surface. Before the start of irradiation, oxygen's exposure was 2 minutes. Corneal flaps (approximately 200 μm thick) were excised from the eyes with aid of Intralase femtosecond laser (Abbot Medical Optics, Santa Ana, Calif.). The average thickness of the corneal flaps was calculated as a difference between the measurements before and after the excision from the eyes with an ultrasonic Pachymeter (DGH Technology, Exton, Pa.). The flaps were washed with distilled water two times, dried with filter paper, washed with dH2O two times, and then dried in a vacuum until the weight change became less than 10% (Rotary vane vacuum pump RV3 A652-01-903, BOC Edwards, West Sussex, UK). Each flap was digested for 2.5 hours at 65° C. with 2.5 units/ml of papain (from Papaya latex, Sigma) in 1 ml of papain buffer [BBBS (pH 7.0-7.2), 2 mM L-cysteine and 2 mM EDTA]. Papain digests were centrifuged for 5 seconds at 2200×G (Mini centrifuge 05-090-100, Fisher Scientific), diluted 0.5 times with BBBS and fluorescence of the solutions was measured with excitation of λex=360 nm in a QM-40 Spectrofluorometer (Photon Technology Int., London, Ontario, Canada). The fluorescence of the papain buffer was taken into account by measuring fluorescence in the absence of tissue and subtracting this value from the fluorescence of the samples.
This method was used because the non-enzymatic cross-link density in collagens was previously quantified with use of papain digest fluorescence. There is a linear relationship between fluorescence and increasing cross-linking activity.
Corneal flaps were soaked in either distilled water or diluted H2O2 (1%) for 20 minutes. Flaps soaked in H2O2 were either rinsed twice with distilled water or removed from H2O2 and placed in 0.1% FeSO4 solution in distilled water for an additional 20 minute soak followed by a 2× rinse with distilled water. Flaps were dried in a vacuum until the weight change became less than 10% (Rotary vane vacuum pump RV3 A652-01-903, BOC Edwards, West Sussex, UK). Each flap was digested for 2.5 hours at 65° C. with 2.5 units/ml of papain (from Papaya latex, Sigma) in 1 ml of papain buffer [BBBS (pH 7.0-7.2), 2 mM L-cysteine and 2 mM EDTA]. Papain digests were centrifuged for 5 seconds at 2200×G (Mini centrifuge 05-090-100, Fisher Scientific), diluted 0.5 times with BBBS and fluorescence of the solutions was measured with excitation of λex=360 nm in a QM-40 Spectrofluorometer (Photon Technology Int., London, Ontario, Canada). The fluorescence of the papain buffer was taken into account by measuring fluorescence in the absence of tissue and subtracting this value from the fluorescence of the samples.
Pig eyes were shipped overnight on ice from an abattoir (SiouxPreme, Sioux City, Iowa), rinsed in saline. Eyes were cleaned and epithelium was removed. […] If specified, eyes were placed in a beaker with a light oxygen stream for 2 minutes in the incubation chamber prior to irradiation. Corneas were pan-corneally irradiated with a top hat beam (3% root mean square) for the chosen time (4 or 8 minutes) with 365-nm light source (UV LED NCSU033B[T]; Nichia Co., Tokushima, Japan) at the chosen irradiance (30 mW/cm^2, pulsed or non-pulsed) which was measured with a power sensor (model PD-300-UV; Ophir, Inc., Jerusalem, Israel) at the corneal surface. Corneal flaps (approximately 200 μm thick) were excised from the eyes with aid of Intralase femtosecond laser (Abbot Medical Optics, Santa Ana, Calif.).

human serum albumin = human serum albumin (Homo sapiens, UniProt P02768); details: irradiated in the presence of human serum albumin; cited from earlier work
Sequence of human serum albumin (P02768 25-609): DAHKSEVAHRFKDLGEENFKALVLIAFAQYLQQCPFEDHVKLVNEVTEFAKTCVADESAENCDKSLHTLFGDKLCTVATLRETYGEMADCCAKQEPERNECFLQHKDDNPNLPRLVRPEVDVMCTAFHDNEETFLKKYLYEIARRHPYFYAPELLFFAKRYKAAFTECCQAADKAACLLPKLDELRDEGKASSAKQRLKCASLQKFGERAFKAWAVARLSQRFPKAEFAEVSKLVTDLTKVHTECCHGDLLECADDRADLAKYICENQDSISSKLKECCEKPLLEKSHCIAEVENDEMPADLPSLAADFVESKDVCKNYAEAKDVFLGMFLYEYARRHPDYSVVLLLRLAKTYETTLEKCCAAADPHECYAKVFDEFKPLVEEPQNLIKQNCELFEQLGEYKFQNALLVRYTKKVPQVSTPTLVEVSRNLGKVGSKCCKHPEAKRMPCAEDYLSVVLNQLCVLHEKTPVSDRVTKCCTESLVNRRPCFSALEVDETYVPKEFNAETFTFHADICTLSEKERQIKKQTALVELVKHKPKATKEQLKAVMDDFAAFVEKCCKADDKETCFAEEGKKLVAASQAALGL

Nc1nc2ncc(CNc3ccc(C(=O)N[C@@H](CCC(=O)O)C(=O)O)cc3)nc2c(=O)[nH]1 [FA, Folic acid]
displacement vs. force (corneal stiffening) (corneal collagen [1]; UV 365 nm): significant stiffening | solubility [2]: 5500 µg/mL (≈ 12.5 mM) | fluorescence of the corneal samples after digestion with papain (excitation 360 nm) (corneal collagen [3]; UV 365 nm): fluorescence of the cross-linked collagen samples increases

Cc1cc2nc(C(=O)[O-])c(=O)n(C[C@H](O)[C@H](O)[C@H](O)CO)c2cc1C.O.[Na+] [sodium salt of 1,2-Dihydro-6,7-dimethyl-2-keto-1-D-ribityl-3-quinoxalinecarboxylic acid monohydrate]
fluorescence of the digested corneas in the area 450 nm (corneal collagen [3]; 0.1% in BBBS): elevated fluorescence in the area 450 nm | fluorescence of the digested corneal flaps (excitation 360 nm) (corneal collagen [3]; 0.1% in BBBS, de-oxygenated with argon, irradiated 4 min at 30 mW/cm^2 in CO2 atmosphere): higher than the fluorescence of the corneal flaps cross-linked with riboflavin

Cc1cc2nc3c(=O)[nH]c(=O)nc-3n(C[C@H](O)[C@H](O)[C@H](O)CO)c2cc1C [riboflavin]
displacement vs. force (corneal stiffening) (corneal collagen [1]; UV 365 nm): significant stiffening | average force vs. displacement of corneal flap (tensiometry) (corneal collagen [1]; vs control group, UVA 30 mW/cm^2, 4 min, CW): higher than the control group | fluorescence of the digested corneas in the area 450 nm (corneal collagen [3]; 0.1% in BBBS): elevated fluorescence in the area 450 nm | fluorescence of the corneal samples after digestion with papain (excitation 360 nm) (corneal collagen [3]; UV 365 nm): fluorescence of the cross-linked collagen samples increases

hydrogen peroxide [H2O2]
fluorescence counts of papain digested corneal flaps (corneal collagen [3]; flaps soaked 20 min in 1% H2O2, with or without a further 20 min in 0.1% Iron(II) (FeSO4), no UV): not when they were exposed to only H2O2

Cc1c(C(=O)NCCO)[n+]([O-])c2ccccc2[n+]1[O-] [Olaquindox, N-(2-hydroxyethyl)-3-methyl-2-quinoxalinecarboxamide 1,4-dioxide]
biaxial extensiometry (corneal collagen stiffness) (corneal collagen [1]; 0.4% in PBS, UVA 30 mW/cm2, 4 min CW or 8 min pulsed + O2, vs controls): became stiffer | relative fluorescence recorded at 450 nm (corneal collagen [3]; 0.4% in PBS, UVA 30 mW/cm2, 4 min CW or 8 min pulsed + O2, vs non-irradiated control): acquired fluorescence at 450 nm | time to complete disappearance on irradiation (human serum albumin): ≤ 20 s

CC(=O)C(C)=O [2,3-butanedione]
displacement-force (corneal stiffness) (corneal collagen [1]; UV 365 nm, 30 mW, 4 min): increase of the corneal stiffness | displacement-force (corneal stiffness) (corneal collagen [1]; without UV light): does not cross-link corneal flaps | fluorescence (relative to the untreated controls, Fo) recorded at 450 nm (corneal collagen [3]; UV 365 nm, 30 mW, 4 min): increase of the corneal stiffness and fluorescence output | fluorescence (relative to the untreated controls, Fo) recorded at 450 nm (corneal collagen [3]; without UV light): does not cross-link corneal flaps
